Structures are written as SMILES.

`O=C(OCc1ccc(Cl)cc1)C(=C1NCCCS1)[N+](=O)[O-]`: the melting point (commonly the temperature, or range, at which the solid turns liquid) lay within 119 to 120 °C.

Consider `CC(C)(C)c1ccc(C(=O)Nc2cn3cc(-c4ncc[nH]4)ccc3n2)cc1`, for which the melting point lay within 300 to 301 °C.

Molecule `CCOC(=O)c1cn(CC)c2nc(OC)c(F)cc2c1=O` returned a melting point of 181 to 182 °C. The molecule `Cc1ccccc1NC(=O)CI` gave a melting point of 145 to 146 °C. In the case of `N#Cc1cc(NC(=O)c2cc3ccccc3s2)ccc1N1CCC(O)CC1` it was 224 to 225 °C. `FC(F)(F)Oc1ccc(-c2ccc(C=CCBr)cc2)cc1` came in with a melting point of 121 to 123 °C. As for `O=C(c1ccc(OCCN2CCCC2)cc1)c1c(-c2ccc(O)cc2)sc2cc(O)ccc12`, the melting point was in the range of 146 to 147 °C. Molecule `O=C1NCCc2ccc(OCCCN3CCN(c4cccc(Cl)c4Cl)CC3)cc21` displayed a melting point of 162 to 164 °C. The figure for `O=S(=O)(CC(F)(F)F)Oc1cccc(OS(=O)(=O)CC(F)(F)F)c1OS(=O)(=O)CC(F)(F)F` is 73.5 to 75 °C; for `Cc1nc2c(-c3cccc(N4CCN(C)CC4)c3)cnn2c(N)c1-c1cccc(Br)c1` it is 107 to 113 °C.

With `CC1(C)CCC(C)(C)c2cc3cc(-c4ccc(C(=O)O)o4)ccc3cc21`, the melting point lay within 229 to 230 °C. As for `Cc1cc(N)cnc1CCCC#N`, the melting point fell in the range of 103 to 105 °C. The figure for `O=C1c2ccccc2C(=O)N1CCc1c[nH]c(=O)[nH]c1=O` is 324 to 327 °C; for `CC1CC2CCC=C3C=C(Cl)NCC1=C32` (centres undefined) it is 279 to 281 °C. For `NC[C@@H]1CN(c2nc3c(cc2F)c(=O)c(C(=O)O)cn3C2CC2)C[C@@H]1F` (relative stereo), the melting point fell in the range of 217 to 218 °C. Molecule `COC(=O)c1nc(CN2CCOCC2)n(-c2ccc(Cl)cc2C(=O)c2ccccc2)n1` showed a melting point of 165 to 170 °C. For `CCC(CCSc1cc(OC)c(O)c(OC)c1)(c1cccs1)N(C)C` (centres undefined), the melting point lay within 78 to 80 °C. In turn, `C=Cc1cc(NC(=O)N2CCN(c3cc(OC)cc(OC)c3)CC2)c(OC)nc1C` showed a melting point of 140 to 141 °C. The molecule `CCOC(=O)c1cc2c(cn1)[nH]c1cccc(Oc3ccc([N+](=O)[O-])cn3)c12` returned a melting point of 298 to 300 °C.

The molecule `COc1cc(OC)nc(C(=O)O)n1` displayed a melting point of 155 to 157 °C. In the case of `Cc1ccc(-c2c(NS(=O)(=O)c3ccc(C(C)(C)C)cc3)ncnc2OCCOc2ccc(NC(=O)C(C)(C)C)cn2)cc1`, the melting point was in the range of 140 to 141 °C. Consider `CN(C)Cc1c(-c2ccc(O)cc2)[nH]c2ncnc(Nc3cccc(Cl)c3)c12`, for which the melting point was in the range of 269 to 271 °C. In the case of `CN1CC(CN2C(=O)c3ccccc3C2=O)CC2c3cc(C(C)(C)C)cc4[nH]cc(c34)CC21` (centres undefined) it was 132 to 137 °C; in that of `Nc1cccc(-c2ccc(CCNCc3ccc(Cl)c(Cl)c3)c3ccccc23)n1`, 145 to 170 °C. As for `O=C(Nc1cccc(NC(=O)C(F)(F)C(F)(F)F)c1)Nc1ccc(Cl)c(Cl)c1`, the melting point lay in the range of 195 to 197 °C. For the molecule `COc1ccc(C(=O)Nc2ccccc2Nc2ccccc2)cc1`, the melting point lay in the range of 148 to 150 °C. On to `NC(N)=NC(=O)Cc1c(-c2ccccc2Cl)csc1-c1ccc(OCCc2cn[nH]c2)cc1`, for which the melting point fell in the range of 71 to 72 °C. Turning to `CN(c1ccc(S(C)(=O)=O)cc1)S(=O)(=O)c1cccc(NC(=O)c2ccc(S(C)=O)cc2)c1` (centres undefined), the melting point lay in the range of 184 to 186 °C. With `CC(C)(C)OC(=O)N(C1CCNCC1)C1CCOCC1`, the melting point stood at 104 °C. As for `CCCCC1Oc2ccc(Cl)cc2N(CC(O)CO)C1=O` (centres undefined), the melting point amounted to 69.5 °C.

`Cc1ccc(-n2ccc3c(Cl)nnc(Cl)c32)c(C)c1` registered a melting point of 148 to 149 °C.

In turn, `O=S(=O)(c1ccc(F)cc1)C(F)(F)C(F)(F)C(F)(F)C(F)(F)C(F)(F)C(F)(F)C(F)(F)C(F)(F)S(=O)(=O)c1ccc(F)cc1` had a melting point of 109 to 110 °C. The molecule `N#CC1(N)CC2(OC(c3ccccc3)C(c3ccccc3)O2)C2C1C2(F)C(N)=O` (centres undefined) gave a melting point of 197 °C. `CCc1nn2c(N3CCN(C)CC3)ccnc2c1S(=O)(=O)c1ccccc1` gave a melting point of 206 to 207 °C. `CC(=O)Nc1nc(O)c2cc(C=C(C)c3ccc(C(=O)O)cc3)cnc2n1` yielded a melting point of over 250 °C. Take `Cc1cccc2c(=O)[nH]c(C3CN4CCC3CC4)nc12` (centres undefined): the melting point is 230 to 231 °C. The molecule `Nc1nc2ccccc2c2c1nc(CN1CCOCC1)n2Cc1ccccc1` yielded a melting point of over 300 °C. In the case of `O=C(CCCl)c1cc2c3c(c1)CCN3C(=O)CC2` it was 154 to 155 °C; in that of `Nc1cc2nc(O)c(O)nc2c2ccccc12`, over 300 °C. In turn, `N#Cc1ccc(OCCCCCOc2cccc(-c3cc4cc(C#N)ccc4o3)c2)cc1` gave a melting point of 142 to 145 °C. As for `COc1ccc2ncc3ncn(-c4ccccc4Cl)c3c2c1`, the melting point was in the range of 202 to 205 °C. `COc1ccc2ncc([N+](=O)[O-])c(Nc3ccccc3Cl)c2c1` showed a melting point of 163 to 165 °C. In turn, `CC(=O)OC1CC(n2cc(C=CBr)c(=O)[nH]c2=O)OC1CC#N` (centres undefined) gave a melting point of 96 °C.

Turning to `NS(=O)(=O)c1cc(C(=O)O)cc(NCc2ccccc2)c1Oc1ccc(OCc2ccccc2)cc1`, the melting point was 249 to 251 °C. `OC(CN1CC1)c1ccccc1` (centres undefined) showed a melting point of 74 to 76 °C. In turn, `CN1C(c2ccc(N3CCCCC3)cc2)=NC(C(F)(F)F)(C(F)(F)F)C1NC(=O)c1ccc(F)cc1` (centres undefined) returned a melting point of 123 to 124 °C. Turning to `CCC(=C(N)N)[N+](=O)[O-]`, the melting point lay within 114 to 116 °C. In the case of `N#CC(Sc1ccccc1)=C1SCCN1c1ccccc1` it was 143 to 145 °C; in that of `CC(Sc1nc(N)cc(Cl)n1)c1ccc2ccccc2c1` (centres undefined), 55 to 58 °C; in that of `NC(=NC(=O)Cn1c(Cl)ccc1Cl)NC(=O)c1ccccc1`, 212 to 213 °C.

As to `BrCCON=C1c2ccccc2-n2cccc21`, the melting point amounted to 65 °C. In turn, `O=C(c1ccc(-c2ccnnc2)cc1)N1CCN(S(=O)(=O)c2cc3cc(Cl)ccc3[nH]2)CC1` had a melting point of 170 to 172 °C. Take `COCCOc1nc(SC)c(C#N)c(N2CCc3ccccc3CC2)n1`: the melting point lay within 108 to 111 °C. In the case of `O=S(=O)(c1ccccc1)c1cc[nH]c1-c1ccc(Cl)cc1` it was 158 to 159 °C; in that of `CC1(C)C(=O)C(c2ccccc2)=C1c1ccc(S(C)(=O)=O)cc1`, 145 to 146 °C; in that of `CCCCc1nc2c(N)nc3ccccc3c2n1CCS(C)(=O)=O`, 226 to 228 °C. In the case of `CN(CCOc1ccc(CC(F)C(=O)O)cc1)c1nc2ccccc2o1` (centres undefined) it was 146 to 148 °C; in that of `Cc1cccc2c(Cl)c(Cl)sc12`, 48 to 50 °C. As for `O=C(C=CCN1CCOCC1)Nc1cc2c(Nc3ccc(F)c(Cl)c3)ncnc2cc1OC1CCCC1`, the melting point worked out at 143 °C. `COc1ccc(N2CCOCC2)c2sc(-c3nc4c([nH]3)CCN(CC(N)=O)CC4)nc12` gave a melting point of 299 to 302 °C. In turn, `COc1cc(Nc2c(C#N)cnc3cc(C#CCCO)c(OC)cc23)c(Cl)cc1Cl` gave a melting point of 230 to 232 °C. In turn, `CC(C)CCOc1c(-c2ccc(S(N)(=O)=O)cc2)cnn(-c2ccc(F)c(F)c2)c1=O` gave a melting point of 149 to 151 °C. Regarding `CN1Cc2ccccc2C(OCC(O)Cn2ccnc2)c2c1nc1ccc(Br)cc1c2Cl` (centres undefined), the melting point is 175 to 177 °C. `CCSC1=C(c2ccc(O)cc2)C(=O)c2ccc(O)cc21` gave a melting point of 100 to 102 °C. In the case of `COc1cc(N2CCN(CCc3coc4ccc(F)cc34)CC2)c2ncccc2c1`, the melting point was 80 °C.

For the molecule `CC(=O)C1CCC2C3CCC4=CC(=O)C=CC4(C)C3CCC12CO[N+](=O)[O-]` (centres undefined), the melting point fell in the range of 148 to 150 °C. Molecule `CC(C(=O)O)c1ccc(Oc2ccc(F)cc2)cc1` (centres undefined) yielded a melting point of 84 to 86 °C. For the molecule `COc1ccc2c(c1)c(Cc1nc(-c3ccc4ccccc4c3)cs1)c(C)n2C(=O)c1ccc(Cl)cc1`, the melting point lay within 131 to 133 °C.

On to `CN1CCCC1CCOc1ccccc1CCc1cccc(C#N)c1` (centres undefined), for which the melting point is 101 to 102 °C. As to `CC1CN(c2ccc(Cl)cn2)N=C1N` (centres undefined), the melting point was 159 to 160 °C.

Consider `COc1ccc(-c2cc3cc(F)c(F)cc3[nH]2)cc1NC(=S)Nc1cc(Cl)cc(Cl)c1`, for which the melting point is 203 to 205 °C. `CCCCSc1nc2c(cc1C#N)C(=O)CC(C)(C)C2` registered a melting point of 50 to 52 °C.

The molecule `CC(=O)NC12CC3(C)CC(C)(CC(O)(C3)C1)C2` registered a melting point of 194 to 195 °C. In the case of `OCCCCCc1ccc2ccccc2c1O`, the melting point was in the range of 43 to 46 °C. `OCC1(c2ccc(Cl)cc2)CCN(CCC(c2ccccc2)(c2ccccc2)c2ccccc2)CC1` gave a melting point of 156 to 158 °C.

Take `COc1ccc(C#N)c(F)c1O`: the melting point was in the range of 198 to 200 °C. Molecule `CC(=O)Nc1ccc(OCC(O)CNC(C)(C)C)c(-c2nnco2)c1` (centres undefined) showed a melting point of 157 to 160 °C. With `O=[N+]([O-])c1cccc(OCCn2ccnc2)c1`, the melting point was in the range of 52.5 to 55.5 °C. In turn, `N#Cc1ccccc1OCCCN1CCC(NC(=O)C2CCCCC2)CC1` gave a melting point of 110 to 112 °C. In turn, `Cc1ccn2cc(CS)nc2c1` gave a melting point of 164 to 168 °C. The figure for `CCCc1c[nH]c2cc(CO)ccc12` is 68 to 71 °C. With `Fc1ccc2cc(C3CCNCC3)sc2c1`, the melting point was 115 to 120 °C. Consider `O=C(NCc1ccc(F)cc1)c1cn(N2CCOCC2)c2ccc(CN3CCOCC3)cc2c1=O`, for which the melting point was 165 to 167 °C. Turning to `CCc1nc2c(O)c(CCC(=O)c3ccccc3)c(C(=O)N(C)C)cc2n1C`, the melting point was 177 to 180 °C. As for `COC(=O)c1cc(-c2ccc(S(C)(=O)=O)cc2)n(C2CCCCCC2)n1`, the melting point fell in the range of 115 to 117 °C.

In the case of `CSc1nnc2c3cnn(C)c3ncn12`, the melting point was 204 to 206 °C.

The molecule `CC(NC(=O)CNC(=O)c1c(Cl)cccc1Cl)c1ccccc1` (centres undefined) yielded a melting point of 155 °C. The molecule `CCCc1c(OCCCCCCc2ccccc2CCC(=O)O)ccc2c1OCCC2=O` returned a melting point of 98 to 99 °C. For `COC(=O)C=Cc1cnc(SC)nc1NCc1ccc(OC)c(Cl)c1`, the melting point fell in the range of 141 to 142 °C.

Values taken from a melting point compilation (Tetko et al.; mined from patent text by program, amines drawn as free bases though some values may be those of a salt).
